Data on two compounds can be found in patent US6054437A, “Method for inducing death of neoplastic cells using piperazine derivatives” (Hitachi Chemical Research Center, Inc., priority 1997, dated 2000).

For data set [1], the system named is thiol protease, especially calcium-activated neutral protease (CANP). The conditions noted are these: cited from earlier work.
The next data set concerns KB-V-1 (resistant cells). As to the kind of experiment: Drug accumulation assay ([3H]-vinblastine), resistant cells. It counts as cell-based, human. The procedure:
(§1) 1. Drug Accumulation Assays
(§2) where the effect of NCO-700 on the uptake of radioactive (^3 H)-vinblastine, an anticancer drug, is measured in cultured cancer cells, that are both drug-resistant and drug-sensitive (Reference 3).
(§3) In the first two in vitro assays, the drug accumulation assay and the cell survival assay, a human pharyngeal carcinoma cell line (KB-V-1) which is highly resistant to anticancer drugs was used. This cell line was developed by Drs. Ira Pastan and Michael Gottesman of the National Cancer Institute, by step-wise selection in colchicine of drug-resistant cells. The control cancer cell line (KB-3), from which the resistant cell lines were derived, is sensitive to anticancer drugs.
Measurement of [^3 H]-vinblastine accumulation was performed by the methods developed in the laboratory of Drs. […] In this method, KB-V-1 and KB-3 cells were plated in 10% fetal bovine serum at a density of 3×10^5 cells per well in 24-well Costar plates. The next day, the growth medium was replaced with Dulbecco's modified Eagle's medium with or without (control cells) 20 μM NCO-700. After ten minutes, the medium was removed and replaced with assay medium (0.5 ml) containing 0.1 μCi, (13 pmol) [^3 H]-vinblastine in the presence or absence of 20 μM NCO-700. After an additional 30 min, the medium was removed, the plates were washed three times in ice-cold phosphate-buffered saline, the cells were detached with trypsin, and radioactivity determined by scintillation counting.

The subject of another data set is KB-3 (sensitive cells). As to the kind of experiment: Drug accumulation assay ([3H]-vinblastine), sensitive cells. It counts as cell-based, human. The conditions noted are these: KB-3, control (vinblastine alone). The procedure:
as §1, §2
as §3, with “drugs. The resistant KB-V-1 cell line is approximately 275 times more resistant to vinblastine than the sensitive KB-3 line and has a greatly amplified mdr gene which generates the observed resistance.” for “drugs.”
Measurement of [^3 H]-vinblastine accumulation was performed by the methods developed in the laboratory of Drs. Gottesman and Pastan (Fojo et al., Cancer Res. 45:3002-3007, 1985). […] After an additional 30 min, the medium was removed, the plates were washed three times in ice-cold phosphate-buffered saline, the cells were detached with trypsin, and radioactivity determined by scintillation counting.

The subject of another data set is KB-3 (sensitive). As to the kind of experiment: Cell survival assay with vinblastine, sensitive cells. It is filed as cell-based, human. The conditions noted are these: Homo sapiens, read-out: vinblastine to kill 50% of cells. Here is the method:
(§4) where the effect of NCO-700 to enhance cancer cell killing by vinblastine was measured.
as §3, with “drugs. The resistant KB-V-1 cell line is approximately 275 times more resistant to vinblastine than the sensitive KB-3 line and has a greatly amplified mdr gene which generates the observed resistance.” for “drugs.”
(§5) The cell survival experiments shown above were performed by plating KB-3 (sensitive) and KB-V-1 (resistant) cells in 32 mm well plastic dishes at a cell density of 300-500 cells per well. Vinblastine and NCO-700 were added 16 hours after the initial cell plating. After 10 days of incubation at 37°, cell colonies were stained and counted.

Data set [2] deals with KB-V-1 (resistant). As to the kind of experiment: Cell survival assay with vinblastine, resistant cells. The conditions noted are these: Homo sapiens. It is filed as cell-based, human. The procedure:
as §4
as §3, with “drugs. The resistant KB-V-1 cell line is approximately 275 times more resistant to vinblastine than the sensitive KB-3 line and has a greatly amplified mdr gene which generates the observed resistance.” for “drugs.”
as §5

Data set [3] has as its system KB-V-1 (resistant). The conditions noted are these: cited from earlier work.
For data set [4] the following is noted: in vivo; cited from earlier work.

The structures appear in SMILES notation. Values after ≈ are worked out from the molar mass of the structure shown. Like-named read-outs stand apart in the source and are kept apart here.

Regarding `CCOC(=O)[C@H]1O[C@@H]1C(=O)N[C@@H](CC(C)C)C(=O)NCCC(C)C` [EST], the “thiol protease inhibitory activity” value in data set [1] is “thiol protease inhibitory activity, especially calcium-activated neutral protease (CANP) inhibitory activity”.

On to `CC[C@]1(O)C[C@@H]2CN(CCc3c([nH]c4ccccc34)[C@@](C(=O)OC)(c3cc4c(cc3OC)N(C)[C@H]3[C@@](O)(C(=O)OC)[C@H](OC(C)=O)[C@]5(CC)C=CCN6CC[C@]43[C@@H]65)C2)C1` [vinblastine, reference compound], for which the vinblastine accumulation was 0.29 ± 0.03 pmole vinblastine/mg protein in the data set on KB-V-1 (resistant cells) (KB-V-1, control (vinblastine alone)) and 2.99 ± 0.12 pmole vinblastine/mg protein in the data set with KB-3 (sensitive cells). For the same compound, the “accumulation of vinblastine (in words)” value in the data set on KB-V-1 (resistant cells) (drug-resistant cell line) is listed as “severely restricted”. The IC50 in the data set on KB-3 (sensitive) stood at 0.0032 mg/L (≈ 0.00395 µM); in the data set on KB-V-1 (resistant) [2] (KB-V1, read-out: level of vinblastine needed to kill 50% of the tumor cells) it was 0.825 mg/L (≈ 1.02 µM); in the data set with KB-V-1 (resistant) [2] (KB-V1, read-out: vinblastine to kill 50% of cells), 0.792 mg/L (≈ 0.977 µM). For the same compound, the “resistance to vinblastine, KB-V-1 versus KB-3” value with KB-V-1 (resistant) [3] was “approximately 275 times”. The side effects entry in data set [4] is “inevitable side effects such as hair loss, weight loss, and liver and kidney damage”.
